Laboratory results reported in patent publication EP4782449A1, “TRICYCLIC PYRIDINE COMPOUND ACTING AS SARM1 ENZYME ACTIVITY INHIBITOR, AND USE THEREOF” (Artivila (ShenZhen) Innovation Center, Ltd., priority 2023, dated 2025).

Legend:
[1] = molecular target: T1, SARM1 (Homo sapiens, UniProt Q6SZW1); assay: In vitro biochemical assay for inhibiting SARM1 enzyme activity (PC6 fluorescence, NADase); conditions: full-length SARM1 from transfected HEK293 cells; 50 µM NAD, 50 µM PC6, 50 µM NMN activator; room temperature, 30 minutes; read-out: IC50
T1 construct: inventors produced full-length SARM1 for NAD enzyme activity experiments, and used it for screening; His (C); made in house; host or cells: HEK293 cells, transient transfection; supernatant of digitonin lysate, no further purification described
T1 sequence (Q6SZW1 28-724): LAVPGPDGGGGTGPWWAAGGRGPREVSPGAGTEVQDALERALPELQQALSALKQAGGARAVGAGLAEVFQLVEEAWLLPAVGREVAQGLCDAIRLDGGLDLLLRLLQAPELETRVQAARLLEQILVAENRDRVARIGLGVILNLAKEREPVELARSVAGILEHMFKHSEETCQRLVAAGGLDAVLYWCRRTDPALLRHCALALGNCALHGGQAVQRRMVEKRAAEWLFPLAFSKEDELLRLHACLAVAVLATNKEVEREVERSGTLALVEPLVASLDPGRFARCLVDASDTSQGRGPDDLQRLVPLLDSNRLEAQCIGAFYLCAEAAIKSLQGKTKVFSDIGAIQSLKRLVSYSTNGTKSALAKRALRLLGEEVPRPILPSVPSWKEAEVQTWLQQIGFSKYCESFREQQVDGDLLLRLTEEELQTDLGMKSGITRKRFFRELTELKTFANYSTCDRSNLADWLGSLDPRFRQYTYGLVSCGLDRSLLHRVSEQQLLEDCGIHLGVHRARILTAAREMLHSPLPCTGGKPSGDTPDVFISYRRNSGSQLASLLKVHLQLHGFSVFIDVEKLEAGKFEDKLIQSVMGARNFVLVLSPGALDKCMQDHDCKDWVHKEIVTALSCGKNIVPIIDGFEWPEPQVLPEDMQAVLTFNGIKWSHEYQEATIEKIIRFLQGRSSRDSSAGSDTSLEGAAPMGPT
Description: The gene sequence of SARM1 protein was amplified using PCR, and the PCR amplification product was constructed into pcDNA3.1-HIS-C plasmid. The above construction was completed by YouBio(Hunan, China). HEK293 cells were cultured in 10 cm dishes using DMEM, and the cells were transfected with 15 μg pcDNA3.1-SARM[…]-C expression plasmid on the following day. Cells were collected 48 hours after transfection, and SARM1 protein expressed in the cells was obtained by digitonin lysis for in vitro activity assay experiments. The specific procedure was as follows: Cells were digested with trypsin-EDTA, then centrifuged at 1000 rpm for 5 minutes, washed once with PBS, and then resuspended in PBS containing 100 μM digitonin, with 0.6 mL PBS for the cells in per 10 cm dish, and lysed for 5 minutes. […] Then the supernatant containing SARM1 protein was collected by centrifugation at 5000 rpm for 10 minutes. […] A group without inhibitor was used as control group. All mixtures were incubated at room temperature for 10 minutes. Then, 50 μM NAD and 50 μM PC6 as substrates and 50 μM NMN as an activator were added to the SARM1 protein incubated with the inhibitor, and the reaction was carried out at room temperature for 30 minutes. The concentrations of each component were the final concentrations in the reaction system. […] Finally, the reaction rate was used to represent the protein activity and calculate the half-maximal inhibitory concentration.

[2] = system: dorsal root ganglion explants; assay: Axonal Wallerian degeneration assay in mouse DRG explant culture; type: cell-based, C57BL/6 male mice; conditions: 10 µM test compound, 2 hours pretreatment, axons transected, images at 0 hour and 24 hours
Text: The experimental method was based on Gerdts J et al. (Gerdts J, Sasaki Y, Vohra B, Marasa J, Milbrandt J. Image-based screening identifies novel roles for IkappaB kinase and glycogen synthase kinase 3 in axonal degeneration. J Biol Chem. 2011 Aug 12;286(32):28011-8).
Dorsal root ganglia were dissected from 2-month-old C57BL/6 male mice and placed in 35 mm culture dishes containing pre-cooled HBSS buffer. Excess tissue from each dorsal root ganglion was removed and cut into 2-3 explants using a scalpel, and the explants were planted in wells of a 96-well plate coated with 100 ng/mL Matrigel (Corning). 100 µL of DRG culture medium (Neurobasal medium (Gibco) containing 2% B-27 (Gibco), 1% GlutaMax (Gibco), and 10 ng/mL NGF (MCE)) was added, then cultured in a 37°C incubator for one week, with medium change on day 4, and experiments were performed on day 8.
0.1 µL of 10 mM test compound was dissolved in 100 µL DRG culture medium to prepare new culture medium containing 10 µM test compound. The culture medium in the 96-well plate was aspirated and new culture medium containing the test compound was added. Then the dorsal root ganglion explants were incubated with the medium in a 37°C incubator for 2 hours for pre-protection. After 2-hour pretreatment, a glass electrode was used to transect axons in the area near the tissue block, and bright-field images of axons in the same area were captured at 0 hour and 24 hours post axonal degeneration using a 20x objective lens of a microscope (Olympus). Axonal integrity was evaluated using an in-house developed script.

Q: How did the IC50 [1] turn out when `O=C1C(Cc2ccc3c(c2)CC3)CCN1c1ccc2c(c1)COc1cnccc1-2` (stereo not shown) [Compound 19] was run?
A: 1000 to 10000 nM

Q: What about the “Degree of Protection Against Axonal Wallerian Degeneration” value (shortened to “Degree”) [2] of the same compound?
A: A (substantial protection (A) >50%)

Q: How did the IC50 [1] turn out when `O=C(CCc1ccc(Cl)c(Cl)c1)Nc1ccc2c(c1)COc1cnccc1-2` [Compound 21] was run?
A: < 100 nM

Q: What about the “Degree” value [2] of the same compound?
A: A (substantial protection (A) >50%)

Q: With `O=C(CCc1ccc(Br)cc1)Nc1ccc2c(c1)COc1cnccc1-2` [Compound 22] as the compound, how does the IC50 [1] read?
A: 100 to 1000 nM

Q: And the “Degree” value [2]?
A: A (substantial protection (A) >50%)

Q: Which results are given for `O=C(CCc1ccc(F)c(F)c1)Nc1ccc2c(c1)COc1cnccc1-2` [Compound 25]?
A: IC50 [1]: < 100 nM; Degree of Protection Against Axonal Wallerian Degeneration [2]: A (substantial protection (A) >50%)

Q: What does the source list for `O=C(CCc1cc(F)c(F)c(F)c1)Nc1ccc2c(c1)COc1cnccc1-2` [Compound 27]?
A: IC50 [1]: < 100 nM; Degree of Protection Against Axonal Wallerian Degeneration [2]: B (partial protection (B): 20% to 50%)

Q: What does the source list for `O=C(CCc1ccc(Cl)c(F)c1)Nc1ccc2c(c1)COc1cnccc1-2` [Compound 28]?
A: IC50 [1]: 100 to 1000 nM; Degree of Protection Against Axonal Wallerian Degeneration [2]: A (substantial protection (A) >50%)

Q: How did the IC50 [1] turn out when `O=C(CCc1ccc(F)cc1)Nc1ccc2c(c1)COc1cnccc1-2` [Compound 29, 3-(4-fluorophenyl)-N-(6H-isochromeno[3,4-c]pyridin-8-yl)propanamide] was run?
A: < 100 nM

Q: What about the “Degree” value [2] of the same compound?
A: A (substantial protection (A) >50%)

Q: How did the IC50 [1] turn out when `N#Cc1ccc(CCC(=O)Nc2ccc3c(c2)COc2cnccc2-3)cc1F` [Compound 30] was run?
A: 100 to 1000 nM

Q: And the “Degree” value [2]?
A: A (substantial protection (A) >50%)

Q: `O=C(CCc1ccc(C(F)(F)F)cc1)Nc1ccc2c(c1)COc1cnccc1-2` [Compound 32] was tested. Which IC50 [1] did it give?
A: 100 to 1000 nM

Q: What about the “Degree” value [2] of the same compound?
A: B (partial protection (B): 20% to 50%)

Q: `N#Cc1ccc(CCC(=O)Nc2ccc3c(c2)COc2cnccc2-3)cc1` [Compound 33] was tested. Which IC50 [1] did it give?
A: < 100 nM

Q: What about the “Degree” value [2] of the same compound?
A: A (substantial protection (A) >50%)

Q: Which results are given for `O=C(CCc1cccc(F)c1)Nc1ccc2c(c1)COc1cnccc1-2` [Compound 34]?
A: IC50 [1]: < 100 nM; Degree of Protection Against Axonal Wallerian Degeneration [2]: A (substantial protection (A) >50%)

Q: `O=C(CCc1ccc(Cl)s1)Nc1ccc2c(c1)COc1cnccc1-2` [Compound 36] was tested. Which IC50 [1] did it give?
A: 1000 to 10000 nM

Q: What about the “Degree” value [2] of the same compound?
A: A (substantial protection (A) >50%)

Q: How did the IC50 [1] turn out when `O=C(CCc1ccc(F)cc1F)Nc1ccc2c(c1)COc1cnccc1-2` [Compound 37] was run?
A: 100 to 1000 nM

Q: What about the “Degree” value [2] of the same compound?
A: A (substantial protection (A) >50%)

Q: What does the source list for `O=C(CCc1cc(F)cc(F)c1)Nc1ccc2c(c1)COc1cnccc1-2` [Compound 39]?
A: IC50 [1]: < 100 nM; Degree of Protection Against Axonal Wallerian Degeneration [2]: A (substantial protection (A) >50%)

Q: How did the IC50 [1] turn out when `O=C(CCc1ccc(Cl)cc1F)Nc1ccc2c(c1)COc1cnccc1-2` [Compound 40] was run?
A: 1000 to 10000 nM

Q: And the “Degree” value [2]?
A: A (substantial protection (A) >50%)

Q: How did the IC50 [1] turn out when `Cc1ccc(CCC(=O)Nc2ccc3c(c2)COc2cnccc2-3)cc1` [Compound 41] was run?
A: 100 to 1000 nM

Q: And the “Degree” value [2]?
A: A (substantial protection (A) >50%)

Q: Which results are given for `O=C(CCc1ccc(Cl)cc1)Nc1ccc2c(c1)COc1cnccc1-2` [Compound 42, 3-(4-chlorophenyl)-N-(6H-isochromeno[3,4-c]pyridin-8-yl)propanamide]?
A: IC50 [1]: < 100 nM; Degree of Protection Against Axonal Wallerian Degeneration [2]: A (substantial protection (A) >50%)

Q: `O=C(NCc1ccc(F)cc1)Nc1ccc2c(c1)COc1cnccc1-2` [Compound 45, 1-(4-fluorobenzyl)-3-(6H-isochromeno[3,4-c]pyridin-8-yl)urea] was tested. Which IC50 [1] did it give?
A: < 100 nM

Q: And the “Degree” value [2]?
A: A (substantial protection (A) >50%)

Q: `O=C(NCc1ccc(F)c(F)c1)Nc1ccc2c(c1)COc1cnccc1-2` [Compound 46] was tested. Which IC50 [1] did it give?
A: 100 to 1000 nM

Q: What about the “Degree” value [2] of the same compound?
A: A (substantial protection (A) >50%)

Q: `O=C(NCc1cccc(F)c1)Nc1ccc2c(c1)COc1cnccc1-2` [Compound 47] was tested. Which IC50 [1] did it give?
A: 100 to 1000 nM

Q: What about the “Degree” value [2] of the same compound?
A: A (substantial protection (A) >50%)
